The values below come from US12084451B2, “Compositions and methods for reducing tactile dysfunction, anxiety, and social impairment” (President and Fellows of Harvard College, priority 2018, dated 2024).

Common to all, as to format: cell-based
Experiment [1] has as its target hGABAA α2β3γ2 (Homo sapiens, UniProt P18507+P28472+P47869). Put plainly: hGABAA IonFlux HT PAM Assay, α2β3γ2. To be noted: for Mean Maximal Effect (% of Control): normalized to baseline peak current induced by EC20 GABA (0.8 μM) for 2 seconds; for pEC50: read-out: Estimated EC50. The source says: (§1) Ligand-gated ion channels targeted were hGABAA α1β3γ2 and hGABAA α2β3γ2.
(§2) Electrophysiological assays conducted to profile nine (9) compounds for activities on the on channel targets listed above for Positive Allosteric Modulator (PAM) activities using the IonFlux HT electrophysiological platform.
The parameters measured are described in the Data Analysis section. […] Open circles represent data that has been excluded from the curve fitting. Where no curve fit was possible, n/c (not calculable) is listed.
(§3) All wells included a final DMSO concentration of 0.33% including all control wells.
(§4) All recordings were obtained from a holding potential of −60 mV. The compound addition sequence that was used for all additions was the same for all assays. […] The process was repeated with the next ascending concentration of test compound (FIG. 1).
(§5) All data were first exported to an Excel compatible data file and then analyzed using Graph Pad Prism software.

In experiment [2] the target is T1, hGABAA α1β3γ2 (Homo sapiens, UniProt P14867+P18507+P28472). The experiment can be described thus: hGABAA α1β3γ2 IonFlux HT Agonist Assay. More on the design: activation of hGABAA α1β3γ2 ion channel currents / activation: dose or concentration left out as unconfirmed. The note with it: for activation / activation at 0.3 µM / activation at 1 µM / activation at 3 µM / activation at 10 µM / activation at 30 µM / activation at 100 µM / activation at 300 µM: read-out: Normalized Percentage Activation Mean. The method, then:
Ligand-gated ion channel targets were hGABAA α2β3γ2 and hGABAA α1β3γ2. Electrophysiological assays conducted to profile two compounds for agonist activities on hGABAA α2β3γ2 and seven compounds for agonist activities on hGABAA α1β3γ2 using the IonFlux HT electrophysiological platform.
The parameters measured are described in the Data Analysis section. […] Note: The test compounds was applied over two (2) ‘experimental patterns’ in increasing concentrations.
The supplied compound was prepared in DMSO to concentrations that were 300× the final assay concentrations. Aliquots were taken out and diluted 300× into external buffer to give the final assay concentration. At wells included a final DMSO concentration of 0.33% including all control wets.
All recordings were obtained from a holding potential of −60 mV. The compound addition sequence that was used for all additions was the same for all assays. […] Each test concentration of compound was applied for 2 seconds followed by 60 seconds wash. The process was repeated with the next ascending concentration of test compound. The test compounds were applied over two (2) ‘experimental patterns’ in increasing concentrations (FIG. 11).
AM data were first exported to an Excel compatible data file and then analyzed using Graph Pad Prism software.

The target in experiment [3] is T1, hGABAA α1β3γ2. The experiment can be described thus: hGABAA IonFlux HT PAM Assay, α1β3γ2. The note with it: for Mean Maximal Effect (% of Control): normalized to baseline peak current induced by EC20 GABA (1 μM) for 2 seconds.
Source text: as §1, §2
The parameters measured are described in the Data Analysis section.
as §3, §4, §5

pEC50: −log10 of the molar value. Read-outs that look alike come from different tables or passages of the source. Where only a bound is given, the exact number is not on record here.

T1 sequence (P14867 28-456): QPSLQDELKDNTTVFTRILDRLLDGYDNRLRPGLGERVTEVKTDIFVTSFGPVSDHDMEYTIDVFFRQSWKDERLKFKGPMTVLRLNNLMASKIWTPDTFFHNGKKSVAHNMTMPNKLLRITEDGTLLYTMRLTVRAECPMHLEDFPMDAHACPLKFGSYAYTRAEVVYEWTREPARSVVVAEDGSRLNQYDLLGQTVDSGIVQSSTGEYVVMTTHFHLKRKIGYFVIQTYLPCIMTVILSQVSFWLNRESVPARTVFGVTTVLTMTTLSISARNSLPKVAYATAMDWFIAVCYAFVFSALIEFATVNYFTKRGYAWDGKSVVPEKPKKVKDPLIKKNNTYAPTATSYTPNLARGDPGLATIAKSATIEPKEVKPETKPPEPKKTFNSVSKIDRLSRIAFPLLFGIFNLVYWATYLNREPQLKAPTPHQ
T1 sequence (P28472 26-473): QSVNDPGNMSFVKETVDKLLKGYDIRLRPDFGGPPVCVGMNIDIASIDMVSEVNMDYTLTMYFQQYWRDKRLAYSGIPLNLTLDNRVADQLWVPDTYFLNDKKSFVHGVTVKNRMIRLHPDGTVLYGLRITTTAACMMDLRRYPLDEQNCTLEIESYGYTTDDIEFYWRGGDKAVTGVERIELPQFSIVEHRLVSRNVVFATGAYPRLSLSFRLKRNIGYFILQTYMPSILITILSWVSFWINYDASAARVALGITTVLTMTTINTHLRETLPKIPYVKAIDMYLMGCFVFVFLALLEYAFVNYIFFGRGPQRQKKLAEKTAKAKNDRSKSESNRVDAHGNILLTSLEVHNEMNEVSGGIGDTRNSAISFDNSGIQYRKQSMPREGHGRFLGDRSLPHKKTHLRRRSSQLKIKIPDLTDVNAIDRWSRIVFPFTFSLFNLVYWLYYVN
T1 sequence (P18507 40-475): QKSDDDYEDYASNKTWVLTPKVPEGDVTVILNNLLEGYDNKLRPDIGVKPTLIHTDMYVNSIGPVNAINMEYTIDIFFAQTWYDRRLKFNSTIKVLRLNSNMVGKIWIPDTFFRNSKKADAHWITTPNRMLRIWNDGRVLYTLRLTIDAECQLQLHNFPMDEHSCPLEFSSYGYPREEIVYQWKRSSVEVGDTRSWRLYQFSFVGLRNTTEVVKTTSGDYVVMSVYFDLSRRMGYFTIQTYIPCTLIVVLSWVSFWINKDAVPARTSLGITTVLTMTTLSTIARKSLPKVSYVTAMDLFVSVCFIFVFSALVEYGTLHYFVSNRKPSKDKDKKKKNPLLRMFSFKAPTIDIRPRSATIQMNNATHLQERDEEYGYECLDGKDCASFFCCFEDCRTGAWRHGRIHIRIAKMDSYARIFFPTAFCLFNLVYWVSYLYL
hGABAA α2β3γ2, sequence (P47869 29-451): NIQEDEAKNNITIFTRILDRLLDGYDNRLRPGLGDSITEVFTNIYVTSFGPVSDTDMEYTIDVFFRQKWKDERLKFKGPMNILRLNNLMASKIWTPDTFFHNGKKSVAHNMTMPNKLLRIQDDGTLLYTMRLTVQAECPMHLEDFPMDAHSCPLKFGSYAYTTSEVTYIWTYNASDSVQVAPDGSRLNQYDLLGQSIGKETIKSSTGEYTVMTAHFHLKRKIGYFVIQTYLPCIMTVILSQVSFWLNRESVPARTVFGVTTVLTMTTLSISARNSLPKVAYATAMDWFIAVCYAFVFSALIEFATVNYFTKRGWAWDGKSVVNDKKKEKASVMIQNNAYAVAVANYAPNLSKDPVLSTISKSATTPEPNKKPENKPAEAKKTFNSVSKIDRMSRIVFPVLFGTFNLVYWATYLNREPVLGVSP
hGABAA α2β3γ2, sequence (P28472 26-473): as the sequence (P28472 26-473) above
hGABAA α2β3γ2, sequence (P18507 40-475): as the sequence (P18507 40-475) above

As for `CCCN(CCNC)C(=O)Cc1c(-c2ccc(Cl)cc2)nc2ccc(Cl)cn12` [Compound 3], the “Mean Maximal Effect (% of Control)” value in experiment [1] is reported as 240 % of Control. Besides, the pEC50 (commonly the negative decadic logarithm of the EC50, by convention in mol/L) in experiment [1] (positive modulation of EC20 GABA current) was 5.96. In experiment [2], the pEC50 is less than 3.00, the “activation of hGABAA α1β3γ2 ion channel currents” value is reported as “did not activate”, the activation worked out at 3.53% and the activation at 0.3 µM turned out to be 1.99%. Moreover, in experiment [2], the activation at 1 µM stood at 1.9%, the activation at 3 µM came to 2.32%, the activation at 10 µM is 6.3% and the activation at 30 µM stood at 2.98%. Also, in experiment [2], the activation at 100 µM came out at 3.63% and the activation at 300 µM is 8.78%. The pEC50 in experiment [3] (Estimated EC50, positive modulation of EC20 GABA current) is 7.09. In addition, in experiment [3], the “Mean Maximal Effect (% of Control)” value is 331 % of Control.

As to `CCCN(CCNC)C(=O)Cc1c(-c2ccc(C)cc2)nc2ccc(C)cn12` [Compound 2], in experiment [1], the “Mean Maximal Effect (% of Control)” value is given as 248 % of Control and the pEC50 is 5.70. Further, in experiment [2], the “activation of hGABAA α1β3γ2 ion channel currents” value is “did not activate”, the activation came to 3.48%, the activation at 0.3 µM was 2.17% and the activation at 1 µM came out at 1.99%. For the same compound, in experiment [2], the activation at 3 µM is 2.79%, the activation at 10 µM is 5.37%, the activation at 30 µM came to 5.93% and the activation at 100 µM is 7.1%. In addition, the activation at 300 µM in experiment [2] was 3.63%. Besides, in experiment [2] (agonist activation of channel currents, read-out: Estimated EC50), the pEC50 is less than 3.00. Further, in experiment [3], the “Mean Maximal Effect (% of Control)” value is given as 354 % of Control. For the same compound, the pEC50 in experiment [3] (read-out: Estimated EC50) is 6.35.
